According to patent US20260069621A1, “Pentagalloyl glucose (PGG) for use in treatment of pulmonary hypertension” (Charité - Universitaetsmedizin Berlin, priority 2021, published 2026):

Experiments:
[1] = system: human PAs; assay: Ex vivo culture of human PAs with or without elastase, EVG staining of elastic fibers
Experimental: Effects of PGG on PA biomechanics. The effect of PGG on PA biomechanical properties was assessed by ex vivo culture of PA specimens followed by uniaxial tensile testing. Freshly isolated PAs were handled under sterile conditions. One piece of the artery was excised and directly underwent uniaxial tensile testing to record PA biomechanics at baseline. The rest of the PA was prepared as 2×8-mm strips and placed in a 12-well plate for ex vivo culture in serum-free Dulbecco's modified Eagle's medium (DMEM, Gibco) supplied with penicillin-streptomycin (Thermo Fisher) at 37° C. with controlled humidity at 21% O2 and 5% CO2. PGG (penta-O-galloyl-β-D-glucose hydrate, Sigma-Aldrich) was dissolved in dimethyl sulfoxide (DMSO, Sigma-Aldrich) as a stock solution and added to the medium at a final concentration of 0.1%. […] The following four treatment conditions were tested: control, elastase only, PGG only and PGG prior to elastase. PGG treatment was performed for 1 h at 37° C. prior to culturing PAs for 24 h in the presence or absence of elastase. Control samples were incubated with the corresponding concentrations of DMSO. Histology. Human or rat PA samples were cryo-embedded in OCT Compound (Tissue-Tek) and sliced into 10 μm transverse sections on a Microm HM560 cryostat. […] EVG staining was quantified based on positively stained area on single-plane images using Fiji-ImageJ.

[2] = system: human PAs; assay: Ex vivo culture of human PAs followed by uniaxial tensile test; details: 0.1% PGG
Experimental: Uniaxial tensile test. Following harvesting, human PA samples were kept in normal saline on ice and assessed for biomechanics within 2-4 h. […] Loose connective and adipose tissue were carefully removed, and sample dimensions (length and width) were measured using a digital caliper. The circumferential tensile properties of PAs were assessed using a MyoDynamics Muscle Strip Myograph System (840DM, Danish Myo Technology, Hinnerup, Denmark) with controlled temperature (37° C.) and aeration. To this end, circumferential rectangular sections (2×8 mm) were excised from the pulmonary trunk and mounted at 5 mm length. […] From force-displacement curves, the following parameters were derived: stiffness of elastin (k1)- and collagen (k2)-enriched arterial material (calculated as the slopes of the toe- and linear regions, respectively), with stiffness (k, mN/mm) reflecting the resistance to deformation (ΔF/ΔL) generated by the respective material, and the strain at which the transition of load-bearing elements from elastin to collagen occurred (εTrans), defined based on force-displacement curve characteristics as the strain applied when F reached 100 mN.
Effects of PGG on PA biomechanics. The effect of PGG on PA biomechanical properties was assessed by ex vivo culture of PA specimens followed by uniaxial tensile testing. […]

[3] = concentrations similar to 0.1%; cited from earlier work
[4] = system: rat AAA model; details: local application; cited from earlier work

O=C(OC[C@H]1O[C@@H](OC(=O)c2cc(O)c(O)c(O)c2)[C@H](OC(=O)c2cc(O)c(O)c(O)c2)[C@@H](OC(=O)c2cc(O)c(O)c(O)c2)[C@@H]1OC(=O)c1cc(O)c(O)c(O)c1)c1cc(O)c(O)c(O)c1 [PGG, 1,2,3,4,6-Penta-O-galloyl-β-D-glucose]
Elastic fibers (EVG staining) after elastase treatment ([1]; 0.1% PGG, 1 U porcine elastase for 24 h): partially preserved
Elastin content ([1]; naïve PAs and PAs treated with elastase): increased elastin content
εTrans in uniaxial tensile tests ([2]; elastase-treated PAs): increased
Load borne by elastic fibers ([2]; naïve PAs): increased the load borne by elastic fibers
Cytotoxicity [3]: minimal cytotoxicity
Aneurysmal expansion [4]: reduce
Elastic fiber degeneration [4]: effectively decrease
